Test results from patent US10202339B2, “Therapeutic compounds and compositions” (AGIOS PHARMACEUTICALS, INC., priority 2012, dated 2019).
pIC50: −log10 of the molar value.

What follows are compounds tested against IDH1 R132H (Homo sapiens (Human), UniProt O75874, R132H) (assay: In vitro assay for IDH1m (R132H) inhibitors, NADPH depletion with resazurin/resorufin detection). Details: IDH1 R132H enzyme, 50 minutes at room temperature; read-out: IDH R132H IC50.
Assay type: biochemical
Experimental: Assays were conducted in a volume of 76 μl assay buffer (150 mM NaCl, 10 mM MgCl2, 20 mM Tris pH 7.5, 0.03% bovine serum albumin) as follows in a standard 384-well plate: To 25 ul of substrate mix (8 uM NADPH, 2 mM aKG), 1 μl of test compound was added in DMSO. The plate was centrifuged briefly, and then 25 μl of enzyme mix was added (0.2 μg/ml IDH1 R132H) followed by a brief centrifugation and shake at 100 RPM. The reaction was incubated for 50 minutes at room temperature, then 25 μl of detection mix (30 μM resazurin, […]) was added and the mixture further incubated for 5 minutes at room temperature. The conversion of resazurin to resorufin was detected by fluorescent spectroscopy at Ex544 Em590 c/o 590.
Representative compounds of formula (I) set forth in Tables 1 and 2 were tested in this assay and the results are set forth below in Table 4.

IDH1 R132H, sequence (O75874 whole entry R132H): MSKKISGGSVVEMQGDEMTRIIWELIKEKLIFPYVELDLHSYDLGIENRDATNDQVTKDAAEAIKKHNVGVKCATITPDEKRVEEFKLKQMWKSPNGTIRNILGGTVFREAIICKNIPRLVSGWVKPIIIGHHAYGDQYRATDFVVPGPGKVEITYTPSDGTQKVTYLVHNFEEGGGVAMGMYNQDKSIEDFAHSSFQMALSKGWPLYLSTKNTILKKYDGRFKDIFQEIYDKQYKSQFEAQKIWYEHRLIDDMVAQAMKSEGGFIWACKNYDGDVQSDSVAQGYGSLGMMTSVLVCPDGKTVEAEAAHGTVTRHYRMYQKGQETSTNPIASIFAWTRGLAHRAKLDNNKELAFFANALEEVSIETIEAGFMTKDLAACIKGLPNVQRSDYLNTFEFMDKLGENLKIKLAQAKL

| Compound | pIC50 |
| --- | --- |
| Cc1cc(C)cc(NC(=O)Nc2ccc(C)c(S(=O)(=O)Nc3ccccc3)c2)c1 [Compound 210] | 5.00 to 6.00 |
| Cc1ccc(NC(=O)Nc2ccccc2C(C)(C)C)cc1S(=O)(=O)Nc1ccc(Cl)cc1 [Compound 255] | 5.00 to 6.00 |
| Cc1ccc(NC(=O)Nc2c(-c3ccccc3)noc2C)cc1S(=O)(=O)Nc1ccc(Cl)cc1 [Compound 290] | 5.00 to 6.00 |
| COc1ccccc1NC(=O)Nc1ccc(C)c(S(=O)(=O)Nc2ccc(Cl)cc2)c1 [Compound 265] | 5.00 to 6.00 |
| Cc1ccc(NC(=O)Nc2ccc(OC(F)(F)F)cc2)cc1S(=O)(=O)Nc1ccccc1 [Compound 208] | 5.00 to 6.00 |
| Cc1ccc(NC(=O)N[C@H](C)c2ccccc2)cc1S(=O)(=O)Nc1ccc(Cl)cc1 [Compound 284] | 5.00 to 6.00 |
| Cc1ccc(NC(=O)Nc2ccc(C)c(S(=O)(=O)Nc3ccc(Cl)cc3)c2)cc1C [Compound 259] | 5.00 to 6.00 |
| COc1cc(OC)c(NC(=O)Nc2ccc(C)c(S(=O)(=O)Nc3ccc(Cl)cc3)c2)cc1Cl [Compound 271] | 5.00 to 6.00 |
| CCCCc1ccc(NC(=O)Nc2ccc(C)c(S(=O)(=O)Nc3ccc(Cl)cc3)c2)cc1 [Compound 253] | 5.00 to 6.00 |
| Cc1cc(Cl)ccc1NC(=O)Nc1ccc(C)c(S(=O)(=O)Nc2ccc(Cl)cc2)c1 [Compound 236] | 5.00 to 6.00 |
| COc1ccc(NC(=O)Nc2ccc(C)c(S(=O)(=O)Nc3ccc(Cl)cc3)c2)cc1 [Compound 267] | 5.00 to 6.00 |
| C#Cc1cccc(NC(=O)Nc2ccc(C)c(S(=O)(=O)Nc3ccccc3)c2)c1 [Compound 211] | 5.00 to 6.00 |
| Cc1ccc(NC(=O)NC2C[C@H]2c2ccccc2)cc1S(=O)(=O)Nc1ccc(Cl)cc1 (stereo partly drawn) [Compound 286] | 5.00 to 6.00 |
| Cc1ccc(NC(=O)Nc2ccc3c(c2)OCO3)cc1S(=O)(=O)Nc1ccc(Cl)cc1 [Compound 292] | 5.00 to 6.00 |
| Cc1ccc(NC(=O)Nc2cccc(C(F)(F)F)c2)cc1S(=O)(=O)Nc1cccc(Cl)c1 [Compound 294] | 5.00 to 6.00 |
| Cc1ccc(F)c(NC(=O)Nc2ccc(C)c(S(=O)(=O)Nc3ccc(Cl)cc3)c2)c1 [Compound 240] | 5.00 to 6.00 |
| Cc1ccc(NC(=O)Nc2cc(Cl)ccc2[N+](=O)[O-])cc1S(=O)(=O)Nc1ccc(Cl)cc1 [Compound 243] | 5.00 to 6.00 |
| Cc1cc(C)cc(NC(=O)Nc2ccc(C)c(S(=O)(=O)Nc3ccc(Cl)cc3)c2)c1 [Compound 260] | 5.00 to 6.00 |
| Cc1cc([N+](=O)[O-])ccc1NC(=O)Nc1ccc(C)c(S(=O)(=O)Nc2ccc(Cl)cc2)c1 [Compound 262] | 5.00 to 6.00 |
| Cc1ccc(NC(=O)NCc2ccc(Br)cc2)cc1S(=O)(=O)Nc1ccc(Cl)cc1 [Compound 277] | 5.00 to 6.00 |
| Cc1ccc(NC(=O)Nc2cccc(C(F)(F)F)c2)cc1S(=O)(=O)Nc1ccc(Cl)cc1 [Compound 221, N-(4-chlorophenyl)-2-methyl-5-(3-(3(trifluoromethyl)phenyl)ureido)benzenesulfonamide] | 5.00 to 6.00 |

| Compound | pIC50 |
| --- | --- |
| Cc1ccc(NC(=O)Nc2c(Cl)cc(F)cc2Br)cc1S(=O)(=O)Nc1ccc(Cl)cc1 [Compound 247] | 5.00 to 6.00 |
| Cc1ccc(NC(=O)Nc2cccc(C(F)(F)F)c2)cc1S(=O)(=O)Nc1ccccc1 [Compound 206, 2-methyl-N-phenyl-5-(3-(3-(trifluoromethyl)phenyl)ureido)benzenesulfonamide] | 5.00 to 6.00 |
| Cc1ccc(NC(=O)Nc2ccc(C)c(S(=O)(=O)Nc3ccc(Cl)cc3)c2)cc1[N+](=O)[O-] [Compound 263] | 5.00 to 6.00 |
| Cc1ccc(NC(=O)Nc2cccc(C)c2C)cc1S(=O)(=O)Nc1ccc(Cl)cc1 [Compound 258] | 5.00 to 6.00 |
| CSc1ccc(NC(=O)Nc2ccc(C)c(S(=O)(=O)Nc3ccc(Cl)cc3)c2)cc1 [Compound 274] | 5.00 to 6.00 |
| Cc1ccc(NC(=O)Nc2ccccc2)cc1S(=O)(=O)Nc1ccc(Cl)cc1 [Compound 213] | 5.00 to 6.00 |
| Cc1ccc(NC(=O)Nc2ccc(F)c(F)c2F)cc1S(=O)(=O)Nc1ccc(Cl)cc1 [Compound 248] | 5.00 to 6.00 |
| Cc1ccc(NC(=O)Nc2ccc(C(F)(F)F)cc2)cc1S(=O)(=O)Nc1ccccc1 [Compound 207, 2-methyl-N-phenyl-5-(3-(4-(trifluoromethyl)phenyl)ureido)benzenesulfonamide] | 5.00 to 6.00 |
| Cc1ccc(NC(=O)Nc2cccc(Oc3ccccc3)c2)cc1S(=O)(=O)Nc1ccccc1 [Compound 212] | 5.00 to 6.00 |
| Cc1ccc(NC(=O)Nc2ccc(F)cc2)cc1S(=O)(=O)Nc1ccc(Cl)cc1 [Compound 219] | 5.00 to 6.00 |
| Cc1ccc(NC(=O)Nc2ccc(Br)cc2)cc1S(=O)(=O)Nc1ccc(Cl)cc1 [Compound 217] | 5.00 to 6.00 |
| Cc1cccc(NC(=O)Nc2ccc(C)c(S(=O)(=O)Nc3ccc(Cl)cc3)c2)c1 [Compound 249] | 5.00 to 6.00 |
| Cc1ccc(NC(=O)NCc2cccc(F)c2)cc1S(=O)(=O)Nc1ccc(Cl)cc1 [Compound 279] | 5.00 to 6.00 |
| Cc1cccc(CNC(=O)Nc2ccc(C)c(S(=O)(=O)Nc3ccc(Cl)cc3)c2)c1 [Compound 282] | 5.00 to 6.00 |
| CCc1ccccc1NC(=O)Nc1ccc(C)c(S(=O)(=O)Nc2ccc(Cl)cc2)c1 [Compound 250] | 5.00 to 6.00 |
| Cc1ccc(NC(=O)Nc2cccc(C(F)(F)F)c2)cc1S(=O)(=O)Nc1ccccc1Cl [Compound 293] | 5.00 to 6.00 |
| Cc1ccc(NC(=O)Nc2ccccc2Cl)cc1S(=O)(=O)Nc1ccc(Cl)cc1 [Compound 214] | 5.00 to 6.00 |
| COc1cc(NC(=O)Nc2ccc(C)c(S(=O)(=O)Nc3ccc(Cl)cc3)c2)cc(OC)c1 [Compound 269] | 5.00 to 6.00 |
| Cc1ccc(NC(=O)Nc2c(C)cccc2C)cc1S(=O)(=O)Nc1ccc(Cl)cc1 [Compound 257] | 5.00 to 6.00 |
| Cc1ccc(NC(=O)Nc2ccc(Br)cc2OC(F)(F)F)cc1S(=O)(=O)Nc1ccc(Cl)cc1 [Compound 232] | 5.00 to 6.00 |
| Cc1ccc(NC(=O)Nc2c(C)cc(Br)cc2C)cc1S(=O)(=O)Nc1ccc(Cl)cc1 [Compound 239] | 5.00 to 6.00 |

Next, values leading:

| pIC50 | Compound |
| --- | --- |
| 5.00 to 6.00 | Cc1ccc(NC(=O)Nc2ccc(C(F)(F)F)cc2)cc1S(=O)(=O)Nc1ccc(OS(C)(=O)=O)cc1 [Compound 327] |
| 5.00 to 6.00 | Cc1ccc(NC(=O)Nc2ccc(C)c(S(=O)(=O)Nc3ccc(Cl)cc3)c2)cc1S(=O)(=O)Nc1ccc(Cl)cc1 [Compound 336] |
| 5.00 to 6.00 | Cc1ccc(NC(=O)Nc2ccc(C(F)(F)F)cc2)cc1S(=O)(=O)Nc1ccc(S(C)(=O)=O)cc1 [Compound 331] |
| 5.00 to 6.00 | Cc1ccc(NC(=O)Nc2cccc(C(F)(F)F)c2)cc1S(=O)(=O)Nc1cccc(O)c1 [compound 303] |
| 5.00 to 6.00 | CCOC(=O)COc1ccc(NS(=O)(=O)c2cc(NC(=O)Nc3ccc(C(F)(F)F)cc3)ccc2C)cc1 [Compound 325] |
| 5.00 to 6.00 | CCOC(=O)CNc1ccc(NS(=O)(=O)c2cc(NC(=O)Nc3ccc(C(F)(F)F)cc3)ccc2C)cc1 [Compound 330] |
| 5.00 to 6.00 | CCOC(=O)COc1ccc(NS(=O)(=O)c2cc(NC(=O)Nc3cccc(C(F)(F)F)c3)ccc2C)cc1 [Compound 308] |
| 5.00 to 6.00 | Cc1ccc(NC(=O)Nc2cccc(C(F)(F)F)c2)cc1S(=O)(=O)Nc1ccc(C#N)cc1 [Compound 311] |
| 5.00 to 6.00 | Cc1ccc(NC(=O)Nc2ccc(C(F)(F)F)cc2)cc1S(=O)(=O)Nc1cccc(CCc2ccccc2)c1 [Compound 332] |
| 5.00 to 6.00 | CCc1ccc(NC(=O)Nc2cccc(C(F)(F)F)c2)cc1S(=O)(=O)Nc1ccc(Cl)cc1 [Compound 333] |
| 5.00 to 6.00 | CCOC(=O)CNc1ccc(NS(=O)(=O)c2cc(NC(=O)Nc3cccc(C(F)(F)F)c3)ccc2C)cc1 [Compound 310] |
| 5.00 to 6.00 | Cc1ccc(NC(=O)Nc2cccc(C(F)(F)F)c2)cc1S(=O)(=O)Nc1ccc(S(C)(=O)=O)cc1 [Compound 313] |
| 5.00 to 6.00 | CC(=O)Nc1ccc(NS(=O)(=O)c2cc(NC(=O)Nc3cccc(C(F)(F)F)c3)ccc2C)cc1 [Compound 309] |
| 5.00 to 6.00 | CCCOc1ccc(NS(=O)(=O)c2cc(NC(=O)Nc3cccc(C(F)(F)F)c3)ccc2C)cc1 [Compound 305] |
| 5.00 to 6.00 | Cc1ccc(NC(=O)Nc2ccc(C(F)(F)F)cc2)cc1S(=O)(=O)Nc1ccc(OCC(=O)O)cc1 [Compound 326] |
| 5.00 to 6.00 | O=C(Nc1cccc(C(F)(F)F)c1)Nc1cc(S(=O)(=O)Nc2ccccc2)ccc1-c1ccsc1 [Compound 351, N-phenyl-4-(thiophen-3-yl)-3-(3-(3-(trifluoromethyl)phenyl)ureido)benzenesulfonamide] |
| 5.00 to 6.00 | CCOC(=O)C(C)Oc1ccc(NS(=O)(=O)c2cc(NC(=O)Nc3ccc(C(F)(F)F)cc3)ccc2C)cc1 (stereo not drawn) [Compound 328] |
| 5.00 to 6.00 | Cc1ccc(NC(=O)Nc2cccc(C(F)(F)F)c2)cc1S(=O)(=O)Nc1cc(F)c(F)cc1F [Compound 301] |
| 5.00 to 6.00 | Cc1ccc(NC(=O)Nc2cccc(C(F)(F)F)c2)cc1S(=O)(=O)Nc1ccc(F)c(Cl)c1 [Compound 299] |
| 5.00 to 6.00 | Cc1cccc(NS(=O)(=O)c2cc(NC(=O)Nc3cccc(C(F)(F)F)c3)ccc2C)c1 [Compound 302] |

Each compound was assayed against IDH2 R140Q (Homo sapiens (Human), UniProt P48735, R140Q) (assay: IDH2 R140Q enzymatic cofactor depletion assay (diaphorase/resazurin)). Details: IDH2 R140Q enzyme, one hour preincubation with compound, one hour reaction; read-out: Enz R140Q.
Assay type: biochemical
In short: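 Enzyme preincubated with compound 1 h at room temperature, then reaction started with 50 μM NADPH and 6.3 mM α-KG and run 1 h at room temperature. Remaining NADPH measured by diaphorase (36 μg/ml)/resazurin (60 μM) stop mix, fluorescence read at Ex544/Em590 after 1 min.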

IDH2 R140Q, sequence (P48735 40-452 R140Q): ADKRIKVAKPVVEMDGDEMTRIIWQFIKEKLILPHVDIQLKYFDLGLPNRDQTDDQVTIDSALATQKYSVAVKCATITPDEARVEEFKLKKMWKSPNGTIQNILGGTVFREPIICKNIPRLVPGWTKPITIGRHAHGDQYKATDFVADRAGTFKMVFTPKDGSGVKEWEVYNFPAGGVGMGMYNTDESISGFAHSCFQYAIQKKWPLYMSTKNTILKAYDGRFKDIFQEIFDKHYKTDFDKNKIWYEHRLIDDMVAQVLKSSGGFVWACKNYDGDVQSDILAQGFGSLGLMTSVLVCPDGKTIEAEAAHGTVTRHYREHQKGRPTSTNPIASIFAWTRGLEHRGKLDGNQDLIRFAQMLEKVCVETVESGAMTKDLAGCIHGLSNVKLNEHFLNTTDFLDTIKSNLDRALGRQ

| pIC50 | Compound |
| --- | --- |
| 6.00 to 7.00 | C=CCNS(=O)(=O)c1ccc(-c2ccsc2)c(NC(=O)Nc2cccc(C(F)(F)F)c2)c1 [Compound 119, N-allyl-4-(thiophen-3-yl)-3-(3-(3-(trifluoromethyl)phenyl)ureido)benzenesulfonamide] |
